Results from article PMC8745263 (International Journal of Molecular Sciences, 2021).
“Also recorded” adds a separate entry of the source. Square brackets hold non-standard residues; d marks the D form. Peptide text beside a SMILES is read from it. Met(O) = CS(=O)CC[C@H](N)C(=O)O

Key:
[1] = molecular target: T1, APEH partially purified from human blood cells (Homo sapiens, UniProt P13798); test: Treatment of peptides with APEH and assessment of proteolysis by LC-MS; format: biochemical; settings: 10 nmol/200 μL peptide, APEH 0.7 μg, 37 °C, 48 h; for % fragment cleaved on carboxy side of H59 (Ac-...HTH, lacking LVQQA), percentage of the initial substrate / % fragment cleaved on carboxy side of Q62 (Ac-...HTHLVQ, lacking QA), percentage of the initial substrate / % intact peptide left after APEH exposure (percentage of the initial substrate): Tris-HCl 25 mM pH 7.5, EIC peak areas, average of three independent experiments; for % Degradation (overall % of peptide degraded upon exposure to APEH): sum of fragment % of Table 2(a), Tris-HCl 25 mM pH 7.5, N.D. = not degraded
T1 construct: incubated with APEH partially purified from human blood cells; from tissue; host or cells: human red blood cells (erythrocyte hemolysate from donors' blood)
T1 sequence (P13798 1-732): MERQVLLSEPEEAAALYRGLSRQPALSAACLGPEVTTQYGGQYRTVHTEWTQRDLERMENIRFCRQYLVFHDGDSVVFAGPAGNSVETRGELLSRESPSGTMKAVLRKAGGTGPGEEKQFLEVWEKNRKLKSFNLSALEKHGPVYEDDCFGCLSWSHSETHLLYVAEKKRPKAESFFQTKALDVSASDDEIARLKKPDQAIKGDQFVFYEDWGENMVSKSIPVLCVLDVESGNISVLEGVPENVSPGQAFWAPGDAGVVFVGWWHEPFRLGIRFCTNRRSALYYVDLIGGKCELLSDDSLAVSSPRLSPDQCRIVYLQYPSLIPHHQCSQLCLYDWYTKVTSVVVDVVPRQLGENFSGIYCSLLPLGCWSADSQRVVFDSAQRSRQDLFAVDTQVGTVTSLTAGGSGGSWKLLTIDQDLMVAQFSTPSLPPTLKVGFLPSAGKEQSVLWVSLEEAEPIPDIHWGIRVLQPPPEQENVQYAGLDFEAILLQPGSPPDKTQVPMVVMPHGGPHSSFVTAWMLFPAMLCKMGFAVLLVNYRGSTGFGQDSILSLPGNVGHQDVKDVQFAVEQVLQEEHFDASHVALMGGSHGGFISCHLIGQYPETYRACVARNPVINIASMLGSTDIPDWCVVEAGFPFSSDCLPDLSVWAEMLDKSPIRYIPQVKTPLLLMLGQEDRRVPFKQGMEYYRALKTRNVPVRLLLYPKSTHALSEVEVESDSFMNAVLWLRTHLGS
Method: In order to identify the potential cleavage sites of APEH on the oxidized GDF11[48-64], the peptide was incubated alone or in combination with the enzyme and the corresponding reaction mixtures were analyzed by LC-MS. The same experiments were performed using the non-oxidized analogues as control.
Blood samples were taken from donors using syringes with heparin. In accordance with ethical principles stated in the Declaration of Helsinki, as well as with approved national and international guidelines for human research, a written informed consent was obtained from participants. The erythrocytes were separated from the plasma by centrifugation at 1800× g for 5 min at 4 °C and washed twice with an isotonic solution (10 mM Tris-HCl pH 7.6, […]; 4 °C). Lysis of erythrocytes was carried out by incubation in hypotonic solution (25 mM Tris/HCl, pH 7.5) for 30 min on ice. The hemolysate was obtained by centrifugation of the lysate at 9200× g for 40 min at 4 °C. Then, the ‘soluble fraction’ was loaded onto a DEAE Sepharose Fast Flow column, connected to an AKTA FPLC system (Amersham Biosciences, Amersham, UK), previously equilibrated in 25 mM Tris-HCl (pH 7.5) (buffer A). The bound proteins were eluted using a linear ionic strength gradient (0–100%) of 1 M NaCl in buffer A at a flow rate of 1 mL min^−1. The active fractions were collected, pooled, dialyzed against 25 mM Tris-HCl pH 7.5 and loaded on a Superdex 200 PC 3.2/30 column (Pharmacia Biotech, Stockholm, Sweden) connected to a SMART System (Pharmacia Biotech, Stockholm, Sweden). The bound proteins were eluted with 25 mM Tris-HCl buffer, pH 7.5, containing 50 mM NaCl, at a flow rate of 0.1 mL min^−1. The active fractions were collected, pooled, dialyzed against 25 mM Tris-HCl pH 7.5 and stored in the same buffer supplemented with 5% glycerol. Enzyme purification was monitored using Ac-Met-7-amino-4-methylcoumarin (AMC) as substrate. Active fractions were analyzed by SDS-PAGE (12%) in order to evaluate the enrichment of the protein during the various purification steps. The protein was also characterized by Western Blot analysis. Aliquots of protein samples were subjected to SDS-PAGE (8%), and then electroblotted onto PVDF membranes (ImmobilonTM, Millipore, Milan, Italy). Membranes were next incubated with the specific primary antibody (sc-102311, 1:5000, Santa Cruz Biotechnology, USA) and then with the horseradish peroxidase-conjugated secondary antibody for 1 h at 37 °C (1:5000, Santa Cruz Biotechnology, Dallas, TX, USA). The immune complexes formed were visualized by enhanced chemiluminescence and autoradiography, according to the manufacturer’s protocol (Amersham Biosciences, Amersham, UK). Molecular mass of the native enzyme was established by gel filtration chromatography on a Superdex 200 PC 3.2/30 column (Pharmacia Biotech, Stockholm, Sweden), connected to a SMART system (Pharmacia Biotech, Stockholm, Sweden), and calibrated with BioRad gel filtration standards (BioRad, Milano, Italy; code 151-1901). The enzyme inhibition assay was performed on APEH preparation using the selective and potent inhibitor AA74-1 (SML0358, Sigma-Aldrich, Milano, Italy). Mixtures containing appropriate amount of inhibitor (62 µM) and APEH sample (0.7 μg) were pre-incubated for 30 min at 37 °C; then the substrate Ac-Met-7-amino-4-methylcoumarin (AMC) was added to the assay mixture and the enzymatic activity was followed as previously described. Control samples were prepared by pre-incubating the same amounts of APEH without the inhibitor and then assayed following the same procedure.
In total, 10 nmol/200 μL of each molecule was incubated with APEH partially purified from human blood cells (0.7 μg, 24.000 total units) at 37 °C for 48 h in Tris-HCl 25 mM pH 7.5. […]

APEH = APEH partially purified from human blood cells (0.7 μg, 24.000 total units) in Tris-HCl 25 mM pH 7.5; settings: 37 °C, up to 48 h

Molecule | % fragment cleaved on carboxy side of H59 (Ac-...HTH, lacking LVQQA), percentage of the initial substrate [1] [%] | % fragment cleaved on carboxy side of Q62 (Ac-...HTHLVQ, lacking QA), percentage of the initial substrate [1] | % intact peptide left after APEH exposure (percentage of the initial substrate) [1] [%] | % Degradation (overall % of peptide degraded upon exposure to APEH) [1] | cleaved bond (APEH) | other results
CC(=O)N[C@@H](CCC(=O)O)C(=O)N[C@@H](Cc1ccc(O)cc1)C(=O)N[C@@H](CC[S+](C)[O-])C(=O)N[C@@H](C)C(=O)N[C@@H](CC[S+](C)[O-])C(=O)N[C@@H](CCC(N)=O)C(=O)N[C@@H](CCCCN)C(=O)N[C@@H](Cc1ccc(O)cc1)C(=O)N1CCC[C@H]1C(=O)N[C@@H](Cc1c[nH]cn1)C(=O)N[C@H](C(=O)N[C@@H](Cc1c[nH]cn1)C(=O)N[C@@H](CC(C)C)C(=O)N[C@H](C(=O)N[C@@H](CCC(N)=O)C(=O)N[C@@H](CCC(N)=O)C(=O)N[C@@H](C)C(N)=O)C(C)C)[C@@H](C)O (stereo partly drawn) [GDF11[48-64] F51A ox] (Ac-EY[Met(O)]A[Met(O)]QKYPHTHLVQQA-NH2) | 11.7 | 3.3% | 85.0 | 15.0% | – | –
CC(=O)N[C@@H](CCC(=O)O)C(=O)N[C@@H](C)C(=O)N[C@@H](CC[S+](C)[O-])C(=O)N[C@@H](Cc1ccccc1)C(=O)N[C@@H](CC[S+](C)[O-])C(=O)N[C@@H](CCC(N)=O)C(=O)N[C@@H](CCCCN)C(=O)N[C@@H](Cc1ccc(O)cc1)C(=O)N1CCC[C@H]1C(=O)N[C@@H](Cc1c[nH]cn1)C(=O)N[C@H](C(=O)N[C@@H](Cc1c[nH]cn1)C(=O)N[C@@H](CC(C)C)C(=O)N[C@H](C(=O)N[C@@H](CCC(N)=O)C(=O)N[C@@H](CCC(N)=O)C(=O)N[C@@H](C)C(N)=O)C(C)C)[C@@H](C)O (stereo partly drawn) [GDF11[48-64] Y49A ox] (Ac-EA[Met(O)]F[Met(O)]QKYPHTHLVQQA-NH2) | 11.5 | 10.2% | 78.3 | 21.7% | – | % fragment cleaved on carboxy side of H59 (Ac-...HTH, lacking LVQQA), percentage of the initial substrate ([1]; listed as Y49A): about 11%
Ac-EYAAM(ox)QKYPHTHLVQQA-NH2 | – | – | – | – | Q62-Q; also recorded: H59-L, major | –
Ac-EYAFAQKYPHTHLVQQA-NH2 | – | – | – | – | – | not cleaved (APEH): 100% intact; N.D. (not degraded) after 48 h
Ac-EYAFAQKYPHTHLVQQA-NH2 [GDF11[48-65] M50M52AA, control peptide where the two methionines were replaced with alanine residues] | – | – | 100 | – | – | –
Ac-EYM(ox)AAQKYPHTHLVQQA-NH2 | – | – | – | – | Q62-Q; also recorded: H59-L, major | –
Ac-EYM(ox)FM(ox)QEYPHTHLVQQA-NH2 | – | – | – | – | – | not cleaved (APEH): did not undergo cleavage on Q62

Continued, in another order:

% fragment cleaved on carboxy side of H59 (Ac-...HTH, lacking LVQQA), percentage of the initial substrate [1] [%] | % fragment cleaved on carboxy side of Q62 (Ac-...HTHLVQ, lacking QA), percentage of the initial substrate [1] | % intact peptide left after APEH exposure (percentage of the initial substrate) [1] [%] | % Degradation (overall % of peptide degraded upon exposure to APEH) [1] | cleaved bond (APEH) | Molecule | other results
16.5 | 0.3% | 83.2 | 16.8% | – | CC(=O)N[C@@H](CCC(=O)O)C(=O)N[C@@H](Cc1ccc(O)cc1)C(=O)N[C@@H](CC[S+](C)[O-])C(=O)N[C@@H](C)C(=O)N[C@@H](C)C(=O)N[C@@H](CCC(N)=O)C(=O)N[C@@H](CCCCN)C(=O)N[C@@H](Cc1ccc(O)cc1)C(=O)N1CCC[C@H]1C(=O)N[C@@H](Cc1c[nH]cn1)C(=O)N[C@H](C(=O)N[C@@H](Cc1c[nH]cn1)C(=O)N[C@@H](CC(C)C)C(=O)N[C@H](C(=O)N[C@@H](CCC(N)=O)C(=O)N[C@@H](CCC(N)=O)C(=O)N[C@@H](C)C(N)=O)C(C)C)[C@@H](C)O (stereo partly drawn) [GDF11[48-64] F51M52AA ox] (Ac-EY[Met(O)]AAQKYPHTHLVQQA-NH2) | –
18.7 | did not undergo cleavage | 81.3 | 18.7% | – | CC(=O)N[C@@H](CCC(=O)O)C(=O)N[C@@H](Cc1ccc(O)cc1)C(=O)N[C@@H](CC[S+](C)[O-])C(=O)N[C@@H](Cc1ccccc1)C(=O)N[C@@H](CC[S+](C)[O-])C(=O)N[C@@H](CCC(N)=O)C(=O)N[C@@H](CCC(=O)O)C(=O)N[C@@H](Cc1ccc(O)cc1)C(=O)N1CCC[C@H]1C(=O)N[C@@H](Cc1c[nH]cn1)C(=O)N[C@H](C(=O)N[C@@H](Cc1c[nH]cn1)C(=O)N[C@@H](CC(C)C)C(=O)N[C@H](C(=O)N[C@@H](CCC(N)=O)C(=O)N[C@@H](CCC(N)=O)C(=O)N[C@@H](C)C(N)=O)C(C)C)[C@@H](C)O (stereo partly drawn) [GDF11[48-64] K54E ox] (Ac-EY[Met(O)]F[Met(O)]QEYPHTHLVQQA-NH2) | –
11.3 | 2.0% | 86.7 | about 13% | – | CC(=O)N[C@@H](CCC(=O)O)C(=O)N[C@@H](Cc1ccc(O)cc1)C(=O)N[C@@H](C)C(=O)N[C@@H](C)C(=O)N[C@@H](CC[S+](C)[O-])C(=O)N[C@@H](CCC(N)=O)C(=O)N[C@@H](CCCCN)C(=O)N[C@@H](Cc1ccc(O)cc1)C(=O)N1CCC[C@H]1C(=O)N[C@@H](Cc1c[nH]cn1)C(=O)N[C@H](C(=O)N[C@@H](Cc1c[nH]cn1)C(=O)N[C@@H](CC(C)C)C(=O)N[C@H](C(=O)N[C@@H](CCC(N)=O)C(=O)N[C@@H](CCC(N)=O)C(=O)N[C@@H](C)C(N)=O)C(C)C)[C@@H](C)O (stereo partly drawn) [GDF11[48-64] M50F51AA ox] (Ac-EYAA[Met(O)]QKYPHTHLVQQA-NH2) | % fragment cleaved on carboxy side of H59 (Ac-...HTH, lacking LVQQA), percentage of the initial substrate ([1]; listed as M50F51AA): about 11%; % Degradation (overall % of peptide degraded upon exposure to APEH) ([1]; listed as GDF11[48-64]ox M50F51AA): 13.3%
– | – | – | – | Q62-Q; also recorded: H59-L | Ac-EAM(ox)FM(ox)QKYPHTHLVQQA-NH2 | –
– | – | – | – | Q62-Q; also recorded: H59-L, major | Ac-EYM(ox)AM(ox)QKYPHTHLVQQA-NH2 | –
